Assay results taken from ChEMBL document CHEMBL1201862, “PubChem BioAssay data set” (2004).
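Briefly, cells in 96-well plates were exposed to five compound concentrations for 48 h, and endpoints were estimated by linear interpolation. GI50 is the concentration that inhibits growth by half.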 Calls of active or inactive are those of the source. Cut-off read from the data, not from the text of the source: active = GI50 up to about 1.1 µM and inactive = higher. Where a SMILES comes first, the peptide text is derived from it. The star is where a group is joined. Boc = CC(C)(C)OC(=O)*; nBu = CCCC*

Assays:
Assay in all cases: growth of human tumour cells (NCI), 48 h
COLO 205 = tested on: COLO 205
MOLT-4 = tested on: MOLT-4
OVCAR-4 = tested on: OVCAR-4
NCI/ADR-RES = tested on: NCI/ADR-RES
HCT-15 = tested on: HCT-15
SF-539 = tested on: SF-539
NCI-H522 = tested on: NCI-H522
A498 = tested on: A498
OVCAR-3 = tested on: OVCAR-3
UO-31 = tested on: UO-31
M14 = tested on: M14
MDA-MB-435 = tested on: MDA-MB-435
SR = tested on: SR
SNB-75 = tested on: SNB-75

Structure (SMILES) | GI50 (COLO 205) | GI50 (MOLT-4) | GI50 (OVCAR-4) | GI50 (NCI/ADR-RES) | GI50 (HCT-15) | GI50 (SF-539) | GI50 (NCI-H522) | GI50 (A498) | GI50 (OVCAR-3) | GI50 (UO-31) | GI50 (M14) | GI50 (MDA-MB-435) | GI50 (SR) | GI50 (SNB-75)
COC(=O)[C@@H](Nc1ccccc1)[C@@]1(C(=O)OC)SC12c1ccccc1-c1ccccc12 | > 100 µM (inactive) | 24.4 µM (inactive) | 69.2 µM (inactive) | > 100 µM (inactive) | 23.9 µM | 45.8 µM (inactive) | 22 µM (inactive) | > 100 µM (inactive) | 43.2 µM (inactive) | 42.3 µM (inactive) | > 100 µM (inactive) | 54.8 µM (inactive) | – | –
CC1(C)Oc2ccc3c(=O)cc(-c4ccc(F)cc4)oc3c2C1C(=O)O (stereo unspecified) | > 100 µM (inactive) | > 100 µM (inactive) | – | > 100 µM (inactive) | – | > 100 µM (inactive) | > 100 µM (inactive) | > 100 µM (inactive) | > 100 µM (inactive) | – | > 100 µM (inactive) | > 100 µM (inactive) | > 100 µM (inactive) | –
NC(=O)Cc1nc2c(N)ncnc2n1C1OC(CO)C(O)C1O (stereo unspecified) | > 100 µM (inactive) | > 100 µM (inactive) | > 100 µM (inactive) | > 100 µM (inactive) | > 100 µM | > 100 µM (inactive) | > 100 µM (inactive) | > 100 µM (inactive) | > 100 µM (inactive) | > 100 µM (inactive) | > 100 µM (inactive) | > 100 µM (inactive) | > 100 µM (inactive) | –
CCN(CC)Cc1sc2nc3ccccc3n2c1-c1ccc(OC)cc1 | 21.5 µM (inactive) | 19.6 µM (inactive) | 53.2 µM (inactive) | 15 µM (inactive) | 12.6 µM | – | 4.11 µM (inactive) | 22.9 µM (inactive) | 21.3 µM (inactive) | 5.28 µM (inactive) | 25.6 µM (inactive) | 3.05 µM (inactive) | – | 33.8 µM (inactive)
CC(C)C1=CC23CCC4C(C)(C(=O)O)CCCC4(C)C2CC1C1C(=O)N(CCCCCCN2C(=O)C4C5CC6C7(C)CCCC(C)(C(=O)O)C7CCC6(C=C5C(C)C)C4C2=O)C(=O)C13 (stereo unspecified) | > 10 µM (inactive) | 6.17 µM (inactive) | 15.7 µM (inactive) | – | 14.8 µM | > 10 µM (inactive) | 12 µM (inactive) | 11.6 µM (inactive) | 13.9 µM (inactive) | > 10 µM (inactive) | 11 µM (inactive) | 4.54 µM (inactive) | 7.43 µM (inactive) | –
CC(=O)Oc1ccccc1/C=C/C(=O)/C=C/c1ccccc1OC(C)=O | 1.89 µM (inactive) | 1.36 µM (inactive) | 2.38 µM (inactive) | 3.33 µM (inactive) | 2.09 µM | 1.74 µM (inactive) | 1.96 µM (inactive) | 2.08 µM (inactive) | 1.66 µM (inactive) | 1.68 µM (inactive) | 1.95 µM (inactive) | 2.15 µM (inactive) | 0.867 µM (active) | –
C/C(=C1\C(=O)C(c2ccccc2)N(c2ccccc2)C1=O)c1ccc(Cl)cc1 (stereo unspecified) | 16.8 µM (inactive) | 31.6 µM (inactive) | 21.5 µM (inactive) | 29.1 µM (inactive) | 19.1 µM | 21.3 µM (inactive) | 18.2 µM (inactive) | 16.7 µM (inactive) | 15.6 µM (inactive) | 19.8 µM (inactive) | 19.8 µM (inactive) | 17.4 µM (inactive) | 20.6 µM (inactive) | –
CC[C@@]1(N(C)C)C(=O)OCc2c1cc1n(c2=O)Cc2cc3ccccc3nc2-1 | > 100 µM (inactive) | – | 47.1 µM (inactive) | 21.3 µM (inactive) | 45.3 µM | – | 12.7 µM (inactive) | 42.7 µM (inactive) | 27.8 µM (inactive) | 25.4 µM (inactive) | > 100 µM (inactive) | > 100 µM (inactive) | – | 12.8 µM (inactive)
CC(=O)On1c(-c2ccccc2-c2nc3ccccc3n2OC(C)=O)nc2ccccc21 | 16.7 µM (inactive) | 11.3 µM (inactive) | – | 79.3 µM (inactive) | 67.5 µM | 42.7 µM (inactive) | 18.5 µM (inactive) | – | 24.3 µM (inactive) | 74.6 µM (inactive) | 33.8 µM (inactive) | 16.2 µM (inactive) | 19.1 µM (inactive) | 35.2 µM (inactive)
CO/C=C(/C(=O)OC)[C@@H]1C[C@@H]1c1ccc2ccccc2c1 | 18.3 µM (inactive) | 16.4 µM (inactive) | 16.9 µM (inactive) | 26.4 µM (inactive) | 18.8 µM | 19.5 µM (inactive) | 12 µM (inactive) | 39.3 µM (inactive) | 24.6 µM (inactive) | 30.3 µM (inactive) | 22.8 µM (inactive) | 14.7 µM (inactive) | 13.2 µM (inactive) | –
COC(=O)Nc1nc2ccc(S(=O)(=O)SC)cc2[nH]1 | 4.28 µM (inactive) | 2.89 µM (inactive) | 11.9 µM (inactive) | 3.61 µM (inactive) | 3.89 µM | 4 µM (inactive) | 4.33 µM (inactive) | 16.3 µM (inactive) | 4.86 µM (inactive) | – | 3.4 µM (inactive) | 2.69 µM (inactive) | 3.72 µM (inactive) | –
Cc1ccc(SCC(CF)OC(C)n2cnc3c(O)nc(N)nc32)cc1 (stereo unspecified) | > 100 µM (inactive) | 50.5 µM (inactive) | > 100 µM (inactive) | > 100 µM (inactive) | > 100 µM | > 100 µM (inactive) | > 100 µM (inactive) | – | 88.7 µM (inactive) | > 100 µM (inactive) | > 100 µM (inactive) | 63.8 µM (inactive) | 98.4 µM (inactive) | > 100 µM (inactive)
CC1(C)OCC(C2OC3OC(C)(C)OC3C2c2ccccc2)O1 (stereo unspecified) | 21.2 µM (inactive) | 22.4 µM (inactive) | 41.4 µM (inactive) | 31.1 µM (inactive) | 24.2 µM | 37.5 µM (inactive) | 37.7 µM (inactive) | – | 34.4 µM (inactive) | 44.8 µM (inactive) | 33.7 µM (inactive) | 37.8 µM (inactive) | 28.8 µM (inactive) | 50.6 µM (inactive)
CCCCOc1ccc(CC(NC(=O)OC(C)(C)C)C(=O)NC(C)C(=O)NC(Cc2ccccc2)C(=O)NCC(N)=O)cc1 (stereo unspecified) (Boc-Y(nBu)AFG-NH2; configuration not given here) | > 100 µM (inactive) | 23 µM (inactive) | > 100 µM (inactive) | > 100 µM (inactive) | > 100 µM | > 100 µM (inactive) | 66.5 µM (inactive) | > 100 µM (inactive) | > 100 µM (inactive) | > 100 µM (inactive) | > 100 µM (inactive) | > 100 µM (inactive) | – | > 100 µM (inactive)
C1=CN2C[n+]3ccc4ccccc4c3N=C2c2ccccc21 | 1.23 µM (inactive) | 1.91 µM (inactive) | – | 48.6 µM (inactive) | 66.4 µM | 3.25 µM (inactive) | 0.622 µM (active) | – | 0.652 µM (active) | 21 µM (inactive) | 2.72 µM (inactive) | 2.19 µM (inactive) | 1.11 µM (active) | –
COC(=O)CCc1ccc2c(c1)[C@H](C(=O)OC)[C@@H](c1ccc(O)cc1)O2 | > 100 µM (inactive) | 35.6 µM (inactive) | > 100 µM (inactive) | > 100 µM (inactive) | 58.9 µM | 25.6 µM (inactive) | 75.9 µM (inactive) | > 100 µM (inactive) | > 100 µM (inactive) | > 100 µM (inactive) | > 100 µM (inactive) | > 100 µM (inactive) | 93.5 µM (inactive) | –
